This note sets out measurements from PubChem BioAssay AID1117287 (Broad Institute, 2014).

Structures are written as SMILES. The source made the active and inactive calls.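 Rule for the calls: active = inhibitor whose half-maximal potency stays within twice the top tested dose in every replicate test; inconclusive = mixed calls across tests, weak flat response, or poor curve fit; inactive = all tests inactive, including rising signal.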 Bounds are passed on as bounds.

Broadly, the AC50 is the midpoint of the concentration-response curve, whichever way the signal moves.

The target of one test is Endoplasmic reticulum aminopeptidase 1 (Homo sapiens) (UniProt Q9NZ08). The experiment in a line: ERAP1 aminopeptidase inhibitors, dose response, biochemical, fluorescence, dry powder, set 2 (AID 1117287). The following applies: ERAP1, Leu-AMC fluorescence, 60 min.
Endoplasmic reticulum aminopeptidase 1 (Homo sapiens), sequence (Q9NZ08 whole entry, looked up): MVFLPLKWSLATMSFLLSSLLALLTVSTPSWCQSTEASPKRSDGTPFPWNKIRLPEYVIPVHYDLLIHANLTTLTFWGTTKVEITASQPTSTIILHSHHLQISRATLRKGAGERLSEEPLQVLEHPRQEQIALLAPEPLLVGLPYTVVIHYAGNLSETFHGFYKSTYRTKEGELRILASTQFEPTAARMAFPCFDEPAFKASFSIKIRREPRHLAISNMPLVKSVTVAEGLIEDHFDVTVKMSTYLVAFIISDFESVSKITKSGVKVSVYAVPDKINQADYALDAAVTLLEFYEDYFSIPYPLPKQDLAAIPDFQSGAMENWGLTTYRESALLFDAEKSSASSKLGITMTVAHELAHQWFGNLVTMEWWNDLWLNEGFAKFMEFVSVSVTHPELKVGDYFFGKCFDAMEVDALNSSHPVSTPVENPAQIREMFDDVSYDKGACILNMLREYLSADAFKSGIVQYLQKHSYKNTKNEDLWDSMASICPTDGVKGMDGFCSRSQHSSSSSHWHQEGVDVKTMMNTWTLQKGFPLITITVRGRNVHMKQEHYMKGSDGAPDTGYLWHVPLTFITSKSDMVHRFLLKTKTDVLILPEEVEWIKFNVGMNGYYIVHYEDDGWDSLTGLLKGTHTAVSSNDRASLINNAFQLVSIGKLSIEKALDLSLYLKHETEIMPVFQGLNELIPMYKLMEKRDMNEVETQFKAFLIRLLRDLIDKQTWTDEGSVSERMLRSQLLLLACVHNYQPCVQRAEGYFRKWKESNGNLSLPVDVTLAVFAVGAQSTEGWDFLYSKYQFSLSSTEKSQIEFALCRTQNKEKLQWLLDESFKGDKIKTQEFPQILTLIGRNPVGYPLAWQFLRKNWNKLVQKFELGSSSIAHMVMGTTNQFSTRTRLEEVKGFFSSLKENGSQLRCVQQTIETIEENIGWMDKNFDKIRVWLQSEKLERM
As to `COc1ccc(C(=O)O)cc1S(=O)(=O)Nc1ccc(N2CCCCC2)cc1C(F)(F)F`, the AC50 is > 100 µM (inactive). Consider `COc1ccc(C(=O)O)cc1S(=O)(=O)N1CCN(c2ccc(C(F)(F)F)cc2N)CC1`, for which the AC50 is > 100 µM (inactive).

With `COc1ccc(C(=O)O)cc1S(=O)(=O)Nc1cccc(N2CCCCC2)c1C(F)(F)F`, the AC50 is > 100 µM (inactive).

Still in this test, the particulars now being: ERAP1, Leu-AMC fluorescence, 60 min; at 26 µM (top of the series).
On to `O=S(=O)(O)c1ccc(N2N=C(c3ccccc3)CC2c2ccccc2)cc1` (stereo not drawn), for which the “activity change, negative = inhibition” value was “inactive”.

Still in this test, the particulars now being: ERAP1, Leu-AMC fluorescence, 60 min; at 26 µM (top of the series); above what the read-out allows, likely interference.
For `COc1ccc(C2=NN(c3ccc(C(=O)O)cc3)C(c3ccc(OC)c(OC)c3)C2)cc1` (stereo not drawn), the “activity change, negative = inhibition” value is “inactive”.

The same test, now with this note: ERAP1, Leu-AMC fluorescence, 60 min; at 50 µM (top of the series).
As to `Cc1ccc(S(=O)(=O)Nc2cc(C(F)(F)F)ccc2N2CCCCC2)cc1C(=O)O`, the “activity change, negative = inhibition” value was “inactive”. As for `COc1ccc(C(=O)O)cc1S(=O)(=O)Nc1cc(C(F)(F)F)ccc1N1CCCCC1`, the “activity change, negative = inhibition” value is “inactive”. Consider `COc1ccc(C(=O)Nc2cccc(C(F)(F)F)c2)cc1S(=O)(=O)O`, for which the “activity change, negative = inhibition” value is “inactive”. The same measure, in the same setting: as for `O=C(O)c1cc(F)cc(S(=O)(=O)Nc2cc(C(F)(F)F)ccc2N2CCCCC2)c1`, the entry is “inactive”; as for `Cc1ccc(C(=O)O)cc1S(=O)(=O)Nc1cc(C(F)(F)F)ccc1N1CCCCC1`, “inactive”; as for `COc1ccc(C(=O)O)cc1S(=O)(=O)Nc1cc(C(F)(F)F)ccc1N1CCN(C(C)=O)CC1`, “inactive”. Take `COc1ccc(C(=O)O)cc1S(=O)(=O)Nc1cc(C(F)(F)F)ccc1N(C)C`: the “activity change, negative = inhibition” value was “inactive”.

For `COc1ccc(C(=O)O)cc1S(=O)(=O)Nc1cc(C(F)(F)F)ccc1N1CCOCC1`, the “activity change, negative = inhibition” value is “inactive”.
